The source of these data is patent publication US7098001B2, “Polypeptides having dipeptidyl aminopeptidase activity and nucleic acids encoding same” (Novozymes, Inc., priority 1997, dated 2006).

Where a SMILES comes first, the peptide text is derived from it. The star is where a group is joined. pNA = O=[N+]([O-])c1ccc(N*)cc1 Some results are limits rather than exact numbers.

Common to all, as to format: biochemical
The target in data set [1] is dipeptidyl aminopeptidase I (Aspergillus oryzae, UniProt Q2UH35). Description: relative activity on mono-, di- and tri-peptide para-nitroanilide substrates. The settings on record: enzyme diluted 100-fold, pH 7.5, ambient temperature; for Activity (mOD/min): substrate 2 mg/ml stock. As for the experimental part:
The relative activity of various mono-, di-, and tri-peptide para-nitroanilide substrates were assayed relative to Ala-Pro-pNA with the purified dipeptidyl aminopeptidase I diluted 100-fold in 50 mM sodium phosphate pH 7.5 buffer. Each substrate was dissolved in DMSO to a concentration of 100 mg/ml and then diluted 50 fold in 50 mM sodium phosphate pH 7.5 buffer to 2 mg/ml. The assay was performed by mixing 100 μl of the substrate solution with 100 μl of the dipeptidyl aminopeptidase I solution and monitoring the change in absorbance at 405 nm and ambient temperature.

Substrate in data set [2]: C[C@H](N)C(=O)N[C@@H](C)C(=O)Nc1ccc([N+](=O)[O-])cc1
In words: kinetic parameters (Lineweaver-Burke plot) for dipeptidyl aminopeptidase I substrates. The settings on record: other: 50 mM sodium phosphate pH 7.5. As to the method:
(§1) The kinetic parameters for various dipeptidyl aminopeptidase I substrates was determined using the following protocol. The substrates included Ala-Pro-pNA, Asp-Pro-pNA, and Ala-Ala-pNA. Purified dipeptidyl aminopeptidase I with an A280 of 1.521 was diluted 25-fold for Ala-Pro-pNA, 20-fold for Asp-Pro-pNA, and 10-fold for Ala-Ala-pNA in water. Each substrate was dissolved in DMSO to a concentration of 100 mg/ml and then diluted 50 fold in 50 mM sodium phosphate pH 7.5 buffer to 2 mg/ml. In a 96 well microtiter plate, 10 μl of purified dipeptidyl aminopeptidase I was incubated with each substrate as follows except the 200 μl substrate assay was not performed with the Asp-Pro-pNA substrate, and the absorbance at 405 nm was measured for 3 minutes: • 1. 200 μl of 2 mg/ml substrate+0 μl of 50 mM sodium phosphate buffer pH 7.5 • 2. 100 μl of 2 mg/ml substrate+100 μl of 50 mM sodium phosphate buffer pH 7.5 • 3. 50 μl of 2 mg/ml substrate +150 μl of 50 mM sodium phosphate buffer pH 7.5 • 4. 25 μl of 2 mg/ml substrate+175 μl of 50 mM sodium phosphate buffer pH 7.5 • 5. 10 μl of 2 mg/ml substrate+190 μl of 50 mM sodium phosphate buffer pH 7.5 • 6. 5 μl of 2 mg/ml substrate+195 μl of 50 mM sodium phosphate buffer pH 7.5

Substrate in data set [3]: N[C@@H](CC(=O)O)C(=O)N1CCC[C@H]1C(=O)Nc1ccc([N+](=O)[O-])cc1
The description is as above. The settings on record: other: 50 mM sodium phosphate pH 7.5. As to the method:
as §1

Substrate in data set [4]: C[C@H](N)C(=O)N1CCC[C@H]1C(=O)Nc1ccc([N+](=O)[O-])cc1
Described as above. The following applies: other: 50 mM sodium phosphate pH 7.5. As for the experimental part: as §1

Consider `N[C@@H](CC(=O)O)C(=O)N1CCC[C@H]1C(=O)Nc1ccc([N+](=O)[O-])cc1` [Asp-Pro-pNA] (H-Asp-Pro-pNA), for which, in data set [1], the “Percent Activity Retative to Ala-Pro-pNA” value is recorded as 29% and the “Activity (mOD/min)” value amounted to 70.95 mOD/min.

As for `NCC(=O)N1CCCC1C(=O)Nc1ccc([N+](=O)[O-])cc1` (stereo not drawn) [Gly-Pro-pNA], in data set [1], the “Percent Activity Retative to Ala-Pro-pNA” value worked out at 51.25% and the “Activity (mOD/min)” value turned out to be 125 mOD/min.

`CC(C)[C@H](N)C(=O)N[C@@H](C)C(=O)Nc1ccc([N+](=O)[O-])cc1` [Val-Ala-pNA] (H-Val-Ala-pNA): in data set [1], the “Percent Activity Retative to Ala-Pro-pNA” value was 20.3% and the “Activity (mOD/min)” value turned out to be 49.5 mOD/min.

As for `NCC(=O)N[C@@H](CCC(=O)O)C(=O)Nc1ccc([N+](=O)[O-])cc1` [Gly-Glu-pNA] (H-Gly-Glu-pNA), in data set [1], the “Percent Activity Retative to Ala-Pro-pNA” value was found to be 0% and the “Activity (mOD/min)” value is listed as less than 2 mOD/min.

With `CC(C)C[C@H](N)C(=O)Nc1ccc([N+](=O)[O-])cc1` [Leu-pNA], in data set [1], the “Percent Activity Retative to Ala-Pro-pNA” value is given as 0% and the “Activity (mOD/min)” value is 0 mOD/min.

Turning to `C[C@H](N)C(=O)N1CCC[C@H]1C(=O)Nc1ccc([N+](=O)[O-])cc1` [Ala-Pro-pNA] (H-Ala-Pro-pNA), in data set [1], the “Percent Activity Retative to Ala-Pro-pNA” value is given as 100% and the “Activity (mOD/min)” value is 244 mOD/min.

Regarding `C[C@H](N)C(=O)N[C@@H](C)C(=O)N1CCC[C@H]1C(=O)Nc1ccc([N+](=O)[O-])cc1` [Ala-Ala-Pro-pNA] (H-Ala-Ala-Pro-pNA), in data set [1], the “Percent Activity Retative to Ala-Pro-pNA” value is recorded as 4.3% and the “Activity (mOD/min)” value turned out to be 10.6 mOD/min.

Take `NCC(=O)N[C@@H](CCCN=C(N)N)C(=O)Nc1ccc([N+](=O)[O-])cc1` [Gly-Arg-pNA] (H-Gly-Arg-pNA): in data set [1], the “Percent Activity Retative to Ala-Pro-pNA” value came to 0% and the “Activity (mOD/min)” value was found to be 0 mOD/min.

As for `C[C@H](N)C(=O)Nc1ccc([N+](=O)[O-])cc1` [Ala-pNA], in data set [1], the “Percent Activity Retative to Ala-Pro-pNA” value is 0% and the “Activity (mOD/min)” value stood at 0 mOD/min.

With `N=C(N)NCCC[C@H](N)C(=O)N1CCC[C@H]1C(=O)Nc1ccc([N+](=O)[O-])cc1` [Arg-Pro-pNA] (H-Arg-Pro-pNA), in data set [1], the “Percent Activity Retative to Ala-Pro-pNA” value worked out at 42.17% and the “Activity (mOD/min)” value stood at 103 mOD/min.

In the case of `C[C@H](N)C(=O)N[C@@H](C)C(=O)Nc1ccc([N+](=O)[O-])cc1` [Ala-Ala-pNA] (H-Ala-Ala-pNA), in data set [1], the “Percent Activity Retative to Ala-Pro-pNA” value amounted to 12.4% and the “Activity (mOD/min)” value was 30.2 mOD/min.

B1: dipeptidyl aminopeptidase I (Aspergillus oryzae RIB40) (protein)
chain: LDVPRKPHAPTGEGSKRLTFNETVVKQAITPTSRSVQWLSGAEDGSYVYAAEDGSLTIENIVTNESRTLIPADKIPTGKEAFNYWIHPDLSSVLWASNHTKQYRHSFFADYYVQDVESLKSVPLMPDQEGDIQYAQWSPVGNTIAFVRENDLYVWDNGTVTRITDDGGPDMFHGVPDWIYEEEILGDRYALWFSPDGEYLAYLSFNETGVPTYTVQYYMDNQEIAPAYPWELKIRYPKVSQTNPTVTLSLLNIASKEVKQAPIDAFESTDLIIGEVAWLTDTHTTVAAKAFNRVQDQQKVVAVDTASNKATVISDRDGTDGWLDNLLSMKYIGPIKPSDKDAYYIDISDHSGWAHLYLFPVSGGEPIPLTKGDWEVTSILSIDQERQLVYYLSTQHHSTERHLYSVSYSTFAVTPLVDDTVAAYWSASFSANSGYYILTYGGPDVPYQELYTTNSTKPLRTITDNAKVLEQIKDYALPNITYFELPLPSGETLNVMQRLPPGFSPDKKYPILFTPYGGPGAQEVTKRWQALNFKAYVASDSELEYVTWTVDNRGTGFKGRKFRSAVTRQLGLLEAEDQIYAAQQAANIPWIDADHIGIWGWSFGGYLTSKVLEKDSGAFTLGVITAPVSDWRFYDSMYTERYMKTLSTNEEGYETSAVRKTDGFKNVEGGFLIQHGTGDDNVHFQNSAALVDLLMGDGVSPEKLHSQWFTDSDHGISYHGGGVFLYKQLARKLYQEKNRQTQVLMHQWTKKDLEE
On to B1, for which the figures for the Michaelis-Menten constant (Km) in data set [2], in data set [3] and in data set [4] were 1080 µM, 632 µM and 140 µM, respectively. In addition, the kcat turned out to be 1.775 s⁻¹ in data set [2], 4.072 s⁻¹ in data set [3] and 9.605 s⁻¹ in data set [4].
